Source: patent US20250250582A1, “Plant Cells and Plants Modified to Increase Herbicide Resistance and Stress Tolerance and Methods of Using the Same” (The Board of Trustees of the University of Arkansas, priority 2018, published 2025)
Several values for one entry are separate records, joined by “and”; a condition that tells them apart may be missing. Equal entries are not always repeated.

Experiments:
[1] = test system: susceptible E. colona (ECO-S); experiment: RNA-sequencing differential gene expression, herbicide-treated vs nontreated ECO-S; details: ECO-S-T vs ECO-S-N, 24 h
Text: (§1) Pure-line generated seed of each accession were germinated in pots containing potting soil within a temperature/light controlled growth chamber set to a 14-hr day length, 33 C day temperature, and 24 C night time to simulate environmental conditions early in the rice growing season. A single plant was maintained in each of the pots and used for the treatments; two pots were used as individual biological replicates. […] Pots for each of the respective treatments were labeled as either ECO-R/S-T for the treated samples and ECO-R/S-N for the non-treated counterpart. To minimize the effect that the sprayer may play in the application, both plants of the ECO-R and ECO-S were treated at the same time. After approximately 30 minutes, allowing for the plants to dry, the treated and non-treated plants of both accessions were moved back into the growth chamber. Precisely 24-hours after application, the aboveground portion of each of the plants were removed and immediately frozen in liquid nitrogen to cease all biological function. Samples were then transferred to RNAlater™-ICE (Invitrogen, Carlsbad CA, USA) for shipment to the Clemson University Genomics Institute (CUGI), in Clemson, South Carolina.
(§2) RNA was extracted from the young leaf tissues of both replications for the ECO-R and ECO-S, T and N samples, at Clemson University. Total RNA was extracted with a kit according to the manufactures instructions. The extracted RNA was treated with DNase (Invitrogen, Calsbad, CA, USA) to remove any DNA contamination prior to further processing. The samples were prepared for sequencing by CUGI. For library preparation, the TruSeq Stranded Total RNA kit (Illumina Inc., San Diego, CA, USA) was used according to the instructions provided by the manufacturer to produce a paired-end library for sequencing. Ribosomal RNA was removed using target-specific oligonucleotides paired with rRNA removal beads, removing all cytoplasmic and mitochondrial rRNA that may result in poor quality results. RNA was fragmented and reverse transcribed to cDNA using random primers, followed by a second strand cDNA synthesis. Each fragment is then ligated with an additional ‘A’ and an adapter for sequencing. The PCR enriched product is then used to create the final cDNA library. All samples were sequenced on an Illumina Hiseq 2500 platform housed in the Holdings Cancer Center at the Medical University of South Carolina, Charleston, SC, USA. Samples, regardless of treatments or replication were ran across three lanes to reduce sequencing errors from the equipment. The resulting data were processed by CUGI.
(§3) A de novo transcriptome was assembled from the treatments described for this experiment as well as several treatments, which included herbicides profiled in ECO-R. The treatments were applied to both ECO-R and ECO-S samples with two replications as described previously. In total, 20 individual plants, from both the ECO-R and ECO-S accessions, as well as T and NT samples, were used for the assembly. The transcriptome was assembled using the Trinity RNA-Seq pipeline (Broad Institute, Cambridge, MA, USA). Raw data were assessed for quality using FastQC (Babraham Institute, Cambridge, UK) and then processed to remove adapter sequences and low quality bases using a sliding window method. The processed data were then rerun using FastQC to ensure high quality reads. Using the TrinityRNASeq 2.2.0 software, the samples were normalized, by replication, using a coverage size of 100 and kmer of 32. The normalized reads were then assembled as transcripts and genes using Trinity with the stranded library set as the default.

[2] = test system: susceptible E. colona standard; experiment: Determination of resistance level (visual injury), susceptible plants; details: 2 X dose, visual 3 wk after treatment
[3] = test system: multiple-resistant E. colona (ECO-R); experiment: RNA-sequencing differential gene expression, herbicide-treated vs nontreated ECO-R; details: 24 h
Text: as §1, §2, §3

CCC(=O)Nc1ccc(Cl)c(Cl)c1 [propanil]
ABC transporter G family member 5 Fold Change [1]: 2.8 fold | ABC transporter G family member 42 Fold Change [1]: 1.5 fold | ACC synthase fold change [1]: −2.7 fold | CYP71A1 Fold Change [1]: 2.9 fold | CYP71A21 Fold Change [1]: 5.1 fold | CYP71D7 Fold Change [1]: 5.9 fold | CYP94C1 Fold Change [1]: 3.7 fold and 5.4 fold and 5.5 fold | CYP716B1 Fold Change [1]: 3.0 fold | GSTU1 Fold Change [1]: 2.5 fold and 2.7 fold | GSTU6 Fold Change [1]: 2.3 fold and 4.1 fold | Heparan-alpha-glucosaminide N-acetyltransferase Fold Change [1]: 2.5 fold | MSR-1 Fold Change [1]: 2.1 fold | MYB44 fold change [1]: > 3 fold | MYC3 fold change [1]: 3.4 fold | Probable glutathione S-transferase Fold Change [1]: 1.8 fold | RGA2 fold change [1]: > 7.5 fold | RGA3 fold change [1]: 1.7 fold | UGT73B4 Fold Change [1]: 3.8 fold and 5.7 fold | UGT73C1 Fold Change [1]: 3.1 fold | UGT73C2 Fold Change [1]: 3.3 fold | UGT74D1 Fold Change [1]: 2.2 fold | UGT75C1 Fold Change [1]: 2.9 fold | Uncharacterized acetyltransferase At3g50280 Fold Change [1]: 2.5 fold and 3.5 fold | multiple ACC oxidase genes fold change [1]: −1.8 to −2.2 fold | phosphoenolypyruvate carboxylase fold change [1]: −2.1 to −3.4 fold | pyruvate dehydrogenase fold change [1]: −5.6 to −6.2 fold | sugar transporter ERD6-like 6 fold change [1]: 2.3 fold | DNA and RNA polymerase-related transcripts fold change ([1]; repressed by as much as): ≤ −8.7 fold | ACCase and ACCase 2 fold change ([1]; repressed up to): up to −6.9 fold | susceptible plants killed [2]: 100% | ABC transporter C family member 10 Fold Change ([3]; ECO-R-T vs ECO-R-N): 7.4 fold | ACC oxidase fold change ([3]; ECO-R-T vs ECO-R-N): −4.5 fold | ACCase 2 fold change ([3]; ECO-R-T vs ECO-R-N): −10.2 fold | ACCase fold change ([3]; ECO-R-T vs ECO-R-N): −9.7 fold | ADP sugar pyrophosphatase fold change ([3]; ECO-R-T vs ECO-R-N): −7.2 fold | Beta-glucosidase 22 fold change ([3]; ECO-R-T vs ECO-R-N): 3.6 fold | CYP72A11 Fold Change ([3]; ECO-R-T vs ECO-R-N): 3.1 fold | CYP72A13 Fold Change ([3]; ECO-R-T vs ECO-R-N): 3.8 fold | CYP72A15 Fold Change ([3]; ECO-R-T vs ECO-R-N): 2.6 fold and 3.4 fold and 2.9 fold | CYP89A2 Fold Change ([3]; ECO-R-T vs ECO-R-N): 2.5 fold and 3.8 fold and 3.6 fold | CYP709B1 Fold Change ([3]; ECO-R-T vs ECO-R-N): 7.0 fold | ERF7 fold change ([3]; ECO-R-T vs ECO-R-N): 6.7 fold | ERF060 fold change ([3]; ECO-R-T vs ECO-R-N): 2.1 fold | GST23 Fold Change ([3]; ECO-R-T vs ECO-R-N): 6.7 fold | GSTU17 fold change ([3]; ECO-R-T vs ECO-R-N): 7.9 fold | NADH-cytochrome b5 reductase proteins fold change ([3]; ECO-R-T vs ECO-R-N): < −7.4 fold | NADP-dependent malic enzyme fold change ([3]; ECO-R-T vs ECO-R-N): −9.3 fold | Stress enhanced protein 2 fold change ([3]; ECO-R-T vs ECO-R-N): 2.5 fold | UGT73C2 Fold Change ([3]; ECO-R-T vs ECO-R-N): 4.7 fold | UGT73D1 fold change ([3]; ECO-R-T vs ECO-R-N): 5.3 fold and 6.9 fold and 4.8 fold | UGT73E1 fold change ([3]; ECO-R-T vs ECO-R-N): 3.0 fold | UGT74G1 Fold Change ([3]; ECO-R-T vs ECO-R-N): 4.6 fold and 4.5 fold | UGT75D1 fold change ([3]; ECO-R-T vs ECO-R-N): 7.4 fold | UGT83A1 Fold Change ([3]; ECO-R-T vs ECO-R-N): 2.3 fold | acetyl-coenzyme A synthetase fold change ([3]; ECO-R-T vs ECO-R-N): −8.4 fold | disease resistance protein RPM1 fold change ([3]; ECO-R-T vs ECO-R-N): 7.1 fold | ferredoxin 6 fold change ([3]; ECO-R-T vs ECO-R-N): < −2.4 fold | fructose-1,6-bisphosphatase fold change ([3]; ECO-R-T vs ECO-R-N): −9.3 fold | glutamine synthetase fold change ([3]; ECO-R-T vs ECO-R-N): −10.5 fold | malate dehydrogenase fold change ([3]; ECO-R-T vs ECO-R-N): −10.8 fold | peroxidase 5 fold change ([3]; ECO-R-T vs ECO-R-N): −3.1 fold | phenolic glucoside malonyltransferase 1 fold change ([3]; ECO-R-T vs ECO-R-N): −3.5 fold | pyruvate dehydrogenase E1 subunit fold change ([3]; ECO-R-T vs ECO-R-N): < −10.4 fold | pyruvate phosphate dikinase fold change ([3]; ECO-R-T vs ECO-R-N): −12 fold | ubiquinol cytochrome-c reductase complex core protein fold change ([3]; ECO-R-T vs ECO-R-N): < −8.6 fold | ATP synthase subunit(s) fold change ([3]; ECO-R-T vs ECO-R-N, repressed): < −10 fold | TPS6 repression ([3]; ECO-R-T vs ECO-R-N, repressed): 6.1 fold | sugar transporter ERD6-like 8 repression ([3]; ECO-R-T vs ECO-R-N, repressed): 4.2 fold | sugar transporter SWEET2a repression ([3]; ECO-R-T vs ECO-R-N, repressed): 3.8 fold | heat shock proteins fold change ([3]; ECO-R-T vs ECO-R-N, repressed by as much as): ≤ −9.9 fold | CYP72A14 fold induction ([3]; Echinochloa colona, in vivo): ~3 fold
